Results taken from patent US8344007B2, “Water-soluble polymer-based cantharimides as potentially selective anti-tumor agents” (priority 2009, dated 2013).
Values after ≈ are worked out from the molar mass of the structure shown.

How the values were obtained:
Hep3B = test: MTS assay, Hep3B cell growth; assay type: cell-based; conditions: Homo sapiens, 48 hours of incubation
From the text: (§1) An acute myelogenous leukaemia (AML) cell line (KG1a) and a hepatocellular carcinoma (HCC) cell line (Hep3B) may be obtained from American Type of Culture Collection (ATCC). The AML cell line may be maintained in RPMI 1640 (JRH Biosciences) supplemented with 10% of heat inactivated fetal bovine serum (Hyclone), together with antibiotics including penicillin and streptomycin. The Hep3B HCC cell line may be maintained in DMEM with 10% of heat inactivated fetal bovine serum (Hyclone), together with antibiotics including penicillin and streptomycin. Cells may be allowed to grow in a humidified cell culture incubator kept at 5% carbon dioxide.
(§2) The effect of the synthesized cantharimides on the growth of the cell lines described above was investigated in vitro using a standard MTS ([3-(4,5-dimethylthiazol-2-yl)-5-(3-carboxymethoxyphen-yl)-2-(4-sulfophenyl)-2H-tetrazolium]) assay. Changes in the cellular viability of cell that include Hep3B and SKHep-1 with cantharidin analogues were monitored using the MTS activity assay. In particular, 1×10^4 hepatoma carcinoma cells (SK-Hep-1) were seeded at day 0. For the MTS assay, the medium was changed after 24 hours, and various compounds were then added at different concentrations. For bone marrow cells, compounds were added at the same day as the seeding. After 48 hours of incubation, the medium was removed, and MTS/PMS solution was added. The added medium was incubated for exactly 30 minutes. Subsequently, optical absorbance was determined at 490 nm using an optical absorbance detector (available from Promega).
More than 30 cantharimides were screened for their effects on cell proliferation and potential cytotoxicity in the two cell lines of Hep3B and SKHep-1. The activities of cantharimide were monitored in the presence of dicantharidic (a commercially available cantharidin-mimic) as a reference control.

Solubility = assay type: physicochemical
leukemia cell line KG1a = test: MTS assay, leukemia cell line KG1a; assay type: cell-based; conditions: for IC50: Homo sapiens, KG-1a, concentration necessary for 50% of MTS reduction ability vs control, read-out: MTS50 activity
From the text: as §1, §2
The cytotoxic activity of cantharimide of formula (3) using a leukemia cell line KG1a was investigated by means of a MTS assay. The MTS50 activity was measured as the concentration necessary for 50% of MTS reduction ability by the chemical treated cell as compared with the control. […] On the other hand, cantharimide gave a value of about 5 µg/ml for MTS50 activity against the same cancer cell line.

[1] = test system: non-malignant haematological disorder bone marrow cells; test: MTS assay, primary culture of bone marrow cells; assay type: cell-based, human; design: toxicity to bone marrow cells: dose or concentration left out as unconfirmed
From the text: (§3) Non-malignant hematological disorder bone marrow cells may be collected by a bone marrow aspirate method from consented patients from clinical wards of Prince of Wales Hospital (Hong Kong, China), according to the regulation of the Hospital. Immediately after collection, mononuclear cells may be enriched by Ficoll Plaque (available from General Electricity) gradient centrifugation. Cells may be washed twice by phosphate buffered saline and resuspended in complete medium. Viable cell percentage may then be estimated by trypan blue exclusion assay and counted using a haemacytometer.
as §2, with “After 48 hours of incubation, the medium was removed, and MTS/PMS solution was added. The added medium was incubated for exactly 30 minutes.” left out

KG1a AML cell line = test: Morphology assay, KG1a AML cell line; assay type: cell-based; design: dose or concentration left out as unconfirmed; conditions: 48 hours incubation
From the text: as §1
(§4) The morphological effect of cytotoxic action of cantharidic acid and cantharimide on leukemia cells are depicted in FIGS. 1A to 1F. The untreated non-malignant haematological disorder bone marrow and KG1a AML cell lines are depicted in FIGS. 1A and 1D, respectively. The non-malignant haematological disorder bone marrow and KG1a AML cell lines treated with 5 µg/mL of dicantharidic acid are depicted in FIGS. 1B and 1E, respectively. The non-malignant haematological disorder bone marrow and KG1a AML cell lines treated with 5 µg/mL of cantharimide are depicted in FIGS. 1C and 1F, respectively.

[2] = test system: non-malignant haematological disorder bone marrow; test: Morphology assay, bone marrow; assay type: cell-based, human; conditions: 48 hours incubation
From the text: as §3
The toxicity on non-malignant haematological bone marrow sample was tested to evaluate the side effects of cantharidin, which included bone marrow suppression, and gastrointestinal and urinary tract toxicity.
as §4

With `C[C@@]12C(=O)N(c3nc4ccccc4s3)C(=O)[C@]1(C)[C@H]1CC[C@@H]2O1` [Entry 1] the IC50 (Hep3B) was about 6 µg/mL (≈ 18.3 µM) and the Solubility in water (Solubility) was “Poor”.
In the case of `Cc1ccc2nc(N3C(=O)[C@@]4(C)[C@@H]5CC[C@@H](O5)[C@@]4(C)C3=O)sc2c1` [Entry 2], the IC50 (Hep3B) is reported as about 20 µg/mL (≈ 58.4 µM) and the Solubility in water (Solubility) is reported as “Poor”.
In the case of `COc1ccc2nc(N3C(=O)[C@@]4(C)[C@@H]5CC[C@@H](O5)[C@@]4(C)C3=O)sc2c1` [Entry 3], the IC50 (Hep3B) is reported as about 5 µg/mL (≈ 14 µM) and the Solubility in water (Solubility) is reported as “Poor”.
With `C[C@@]12C(=O)N(c3nc4ccc(OC(F)(F)F)cc4s3)C(=O)[C@]1(C)[C@H]1CC[C@@H]2O1` [Entry 4] the IC50 (Hep3B) was about 10 µg/mL (≈ 24.2 µM) and the Solubility in water (Solubility) was “Fair”.
For `C[C@@]12C(=O)N(c3nc4ccc(C(F)(F)F)cc4s3)C(=O)[C@]1(C)[C@H]1CC[C@@H]2O1` [Entry 5], the IC50 (Hep3B) was about 5 µg/mL (≈ 12.6 µM) and the Solubility in water (Solubility) was “Fair”.
For `C[C@@]12C(=O)N(c3nc4ccc(F)cc4s3)C(=O)[C@]1(C)[C@H]1CC[C@@H]2O1` [Entry 6], the IC50 (Hep3B) was about 5 µg/mL (≈ 14.4 µM) and the Solubility in water (Solubility) was “Poor”.
For `C[C@@]12C(=O)N(c3nc4ccc(C(=O)O)cc4s3)C(=O)[C@]1(C)[C@H]1CC[C@@H]2O1` [Entry 7], the IC50 (Hep3B) was about 5 µg/mL (≈ 13.4 µM), the IC50 (leukemia cell line KG1a) was about 5 µg/mL (≈ 13.4 µM) and the “cytotoxic activity to normal bone marrow cells” value [1] was “lack of cytotoxic activity”. For the same molecule, the “morphological effect on leukemia cells” value (KG1a AML cell line) was “induced loss of colony formation potential and cell shrinkage”, the “morphological effect on bone marrow cells” value [2] was “colony formation remained unchanged” and the solubility (Solubility; DMSO, organic solvent or mixture) was 250 mg/mL (≈ 671000 µM). For the same molecule, the Solubility in water (Solubility) was “Good”.
With `COC(=O)c1ccc2nc(N3C(=O)[C@@]4(C)[C@@H]5CC[C@@H](O5)[C@@]4(C)C3=O)sc2c1` [Entry 8] the Solubility in water (Solubility) was “Good”.
For `CCCCOC(=O)c1ccc2nc(N3C(=O)[C@@]4(C)[C@@H]5CC[C@@H](O5)[C@@]4(C)C3=O)sc2c1` [Entry 9], the Solubility in water (Solubility) was “Good”.
In the case of `C[C@]1(C(=O)O)[C@@H]2CC[C@@H](O2)[C@@]1(C)C(=O)O` [Entry 11, reference compound], the IC50 (Hep3B) is reported as about 0.25 µg/mL (≈ 1.17 µM) and the Solubility in water (Solubility) is reported as “Excellent”.
In the case of `CC1(C(=O)O)C2CCC(O2)C1(C)C(=O)O` (stereo not shown) [dicantharidic acid, reference compound], the IC50 (leukemia cell line KG1a) is reported as about 0.5 µg/mL (≈ 2.33 µM), the “activity to the cancer cell line compared to cantharimide” value (leukemia cell line KG1a; MTS50) is reported as 10 fold and the “toxicity to bone marrow cells” value ([1]; concentration down to 0.15625, 48 hours of incubation) is reported as “extremely toxic”. For the same molecule, the “morphological effect on leukemia cells” value (KG1a AML cell line) was “induced loss of colony formation potential and cell shrinkage” and the “morphological effect on bone marrow cells” value [2] was “induced a similar loss”.
